Data on seven compounds can be found in patent publication US4370266A, “Mycoplanecin derivatives and their preparation” (Sankyo Company, Limited, priority 1980, dated 1983).

Structures are written as SMILES. In brackets after ≈: the same amount, converted by molar mass. Like-named read-outs stand apart in the source and are kept apart here. Numbered stars: 1 amine (or outer) side, 2 acyl side, 3 side chain; on linkers, the order of the positions; unused ones are H or OH. Bridge positions count the residues as written; N and C are the ends. Square brackets hold non-standard residues; d marks the D form. Peptide text beside a SMILES is read from it. * marks the point of attachment. ξ: configuration not given here. X1 = CCC1CC(C(=O)[*:2])N([*:1])C1; Butanoyl(2-oxo) = CCC(=O)C(=O)*; NMeAhp(2) = CCCCC[CH](NC)C(=O)O; ξPro(4ξ-Me) = CC1CNC(C(=O)O)C1; NMeT = CN[CH](C(=O)O)[CH](C)O; NMeL = CN[CH](CC(C)C)C(=O)O; hLeu = CC(C)CC[CH](N)C(=O)O; NMeV = CN[CH](C(=O)O)C(C)C; X2 = CCC(O)C(=O)*

The subject of data set [1] is Mycobacterium smegmatis ATCC 607. In words: Minimal inhibitory concentration (MIC), Mycobacterium smegmatis ATCC 607. The conditions noted are these: Mycolicibacterium smegmatis, ATCC607, 168 h.
In data set [2] the test system is microorganisms of the genus Mycobacterium. Conditions: earlier applications on Mycoplanecin A; cited from earlier work.
The subject of another data set is Candida albicans Yu 1200. In words: MIC, Candida albicans Yu 1200. The class given is cell-based.
A further data set can be described thus: Solubility. Conditions: for Solubility: soluble in: organic solvents; for Solubility: insoluble in: water and, where named, other solvents.
In another data set the test system is Proteus mirabilis 1331. In words: MIC, Proteus mirabilis 1331. Conditions: Proteus mirabilis, 1331, 24 h.
For another data set, the system named is Proteus vulgaris OX19. In words: MIC, Proteus vulgaris OX19. The conditions noted are these: OX19, 24 h.
Data set [3] deals with Escherichia coli NIHJ JC-2. In words: MIC, Escherichia coli NIHJ JC-2. The conditions noted are these: NIHJJC2, 24 h.
Data set [4] deals with Piricularia oryzae SANK 16975. The experiment in a line: microbe, parasite or virus in culture. Format: cell-based. Conditions: 48 h.
Data set [5] deals with Staphylococcus aureus 209P JC-1. The experiment in a line: MIC, Staphylococcus aureus 209P JC-1. The conditions noted are these: 24 h.
The subject of data set [6] is Aspergillus oryzae SANK 11262. In words: MIC, Aspergillus oryzae SANK 11262. Format: cell-based.
Data set [7] deals with Bacillus subtilis PCI 219. In words: MIC, Bacillus subtilis PCI 219. The conditions noted are these: PCI219, 24 h.
The test system of data set [8] is Pseudomonas aeruginosa SANK 73860. The experiment in a line: MIC, Pseudomonas aeruginosa SANK 73860. The conditions noted are these: SANK73860, 24 h.
Data set [9] concerns Trichophyton mentagrophytes SANK 22374. The experiment in a line: MIC, Trichophyton mentagrophytes SANK 22374. Format: cell-based.
The subject of data set [10] is Penicillium chrysogenum SANK 12768. The experiment in a line: MIC, Penicillium chrysogenum SANK 12768. The class given is cell-based.
Another data set has as its system Micrococcus luteus. In words: MIC, Micrococcus luteus. The conditions noted are these: 24 h.
Data set [11] concerns Xanthomonas oryzae SANK 70274. In words: microbe, parasite or virus in culture. Format: cell-based. The conditions noted are these: SANK70274, 72 h.
Data set [12] deals with Klebsiella pneumoniae PCI 602. The experiment in a line: MIC, Klebsiella pneumoniae PCI 602. Conditions: PCI602, 24 h.

In data set [1], `CCCCCC1C(=O)NCC(=O)OC(C)C(N(C)C(=O)C2CC(CC)CN2C(=O)C(C(C)C)N(C)C(=O)C(O)CC)C(=O)NC(CC(C)C)C(=O)N2CC(C)CC2C(=O)NC(CCC(C)C)C(=O)N(C)C(C(C)C)C(=O)N2CCCC2C(=O)N1C` (stereo not drawn) [Compound (IIIa)] (X2-[NMeV][X1][NMeT]L[ξPro(4ξ-Me)][hLeu][NMeV]P[NMeAhp(2)]G; ester 3-C; configuration not given here) gave an MIC of 0.05 µg/mL (≈ 0.0417 µM).
`CCCCCC1C(=O)NCC(=O)OC(C)C(N(C)C(=O)C2CC(CC)CN2)C(=O)NC(CC(C)C)C(=O)N2CC(C)CC2C(=O)NC(CCC(C)C)C(=O)N(C)C(C(C)C)C(=O)N2CCCC2C(=O)N1C` (stereo not drawn) [Compound (IIIb)] (H-[X1][NMeT]L[ξPro(4ξ-Me)][hLeu][NMeV]P[NMeAhp(2)]G; ester 2-C; configuration not given here) displayed an MIC in data set [1] of 6.25 µg/mL (≈ 6.25 µM).
Turning to `CCC(O)C(=O)N(C)C(C(=O)N1CC(C)CC1C(=O)N(C)C1C(=O)NC(CC(C)C)C(=O)N2CC(C)CC2C(=O)NC(CCC(C)C)C(=O)N(C)C(C(C)C)C(=O)N2CCCC2C(=O)N(C)C(CC(C)C)C(=O)NCC(=O)OC1C)C(C)C` (stereo not drawn) [Compound (IIa)], in [1], the MIC was found to be 0.05 µg/mL (≈ 0.0427 µM).
`CC(C)CCC1NC(=O)C2CC(C)CN2C(=O)C(CC(C)C)NC(=O)C(N(C)C(=O)C2CC(C)CN2)C(C)OC(=O)CNC(=O)C(CC(C)C)N(C)C(=O)C2CCCN2C(=O)C(C(C)C)N(C)C1=O` (stereo not drawn) [Compound (IIb)] had an MIC in [1] of 6.25 µg/mL (≈ 6.43 µM).
Regarding `CCC(=O)C(=O)N(C)C(C(=O)N1CC(CC)CC1C(=O)N(C)C1C(=O)NC(CC(C)C)C(=O)N2CC(C)CC2C(=O)NC(CCC(C)C)C(=O)N(C)C(C(C)C)C(=O)N2CCCC2C(=O)N(C)C(CC(C)C)C(=O)NCC(=O)OC1C)C(C)C` (stereo not drawn) [Mycoplanecin A] ({Butanoyl(2-oxo)}-[NMeV][X1][NMeT]L[ξPro(4ξ-Me)][hLeu][NMeV]P[NMeL]G; ester 3-C; configuration not given here), the antibacterial activity result in data set [2] is on record as “antibacterial activity, especially against microorganisms of the genus Mycobacterium”.
On to `CCC(=O)C(=O)N(C)C(C(=O)N1CC(C)CC1C(=O)N(C)C1C(=O)NC(CC(C)C)C(=O)N2CC(C)CC2C(=O)NC(CCC(C)C)C(=O)N(C)C(C(C)C)C(=O)N2CCCC2C(=O)N(C)C(CC(C)C)C(=O)NCC(=O)OC1C)C(C)C` (stereo not drawn) [Mycoplanecin B], for which the MIC is greater than 400 µg/mL against Candida albicans Yu 1200 (YU1200, 48 h); greater than 400 µg/mL in the data set on Proteus mirabilis 1331; greater than 400 µg/mL in the data set on Proteus vulgaris OX19; greater than 400 µg/mL in data set [3]; 0.05 µg/mL (≈ 0.0428 µM) in data set [1]; greater than 400 µg/mL in data set [4]. The MIC was greater than 400 µg/mL in data set [5]; greater than 400 µg/mL in data set [6] (SANK11262, 48 h); greater than 400 µg/mL in data set [7]; greater than 400 µg/mL in [8]; greater than 400 µg/mL in data set [9] (SANK22374, 48 h); greater than 400 µg/mL in data set [10] (SANK12768, 48 h). Further, the MIC in the data set with Micrococcus luteus is 0.0125 µg/mL (≈ 0.0107 µM); in data set [11] (read-out: MIC) it was 12.5 µg/mL (≈ 10.7 µM); in data set [12], greater than 400 µg/mL. The “Solubility: soluble in” value in the data set “Solubility” was “Soluble in methanol, ethanol, ethyl acetate, acetone and chloroform”. Also, the “Solubility: insoluble in” value in the data set “Solubility” was “Insoluble in water”.
On to `CCCCCC1C(=O)NCC(=O)OC(C)C(N(C)C(=O)C2CC(CC)CN2C(=O)C(C(C)C)N(C)C(=O)C(=O)CC)C(=O)NC(CC(C)C)C(=O)N2CC(C)CC2C(=O)NC(CCC(C)C)C(=O)N(C)C(C(C)C)C(=O)N2CCCC2C(=O)N1C` (stereo not drawn) [Mycoplanecin C] ({Butanoyl(2-oxo)}-[NMeV][X1][NMeT]L[ξPro(4ξ-Me)][hLeu][NMeV]P[NMeAhp(2)]G; ester 3-C; configuration not given here), for which the MIC in the data set on Candida albicans Yu 1200 (YU1200, medium S: 48 hours at 26° C. in Sabouraud's agar, read-out: MIC) was greater than 400 µg/mL; in the data set with Proteus mirabilis 1331 it was greater than 400 µg/mL; against Proteus vulgaris OX19, greater than 400 µg/mL; in data set [3], greater than 400 µg/mL; in data set [1] it was 0.05 µg/mL (≈ 0.0418 µM); in data set [4], greater than 400 µg/mL. The MIC in data set [5] was greater than 400 µg/mL; in data set [6] (SANK11262, medium S: 48 hours at 26° C. in Sabouraud's agar, read-out: MIC), greater than 400 µg/mL; in data set [7] it was greater than 400 µg/mL; in [8], greater than 400 µg/mL; in data set [9] (SANK22374, medium S: 48 hours at 26° C. in Sabouraud's agar, read-out: MIC) it was greater than 400 µg/mL; in data set [10] (SANK12768, medium S: 48 hours at 26° C. in Sabouraud's agar, read-out: MIC) it was greater than 400 µg/mL. The MIC is 0.0125 µg/mL (≈ 0.0104 µM) with Micrococcus luteus, 12.5 µg/mL (≈ 10.4 µM) in data set [11] and greater than 400 µg/mL in data set [12]. Moreover, in the data set “Solubility”, the “Solubility: soluble in” value was “Soluble in methanol, ethanol, ethyl acetate, acetone and chloroform”. In addition, in the data set “Solubility”, the “Solubility: insoluble in” value is “Insoluble in water”.
